Laboratory results from ChEMBL document CHEMBL1201862, “PubChem BioAssay data set” (2004).
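Test compounds were applied to cells in 96-well plates for 48 hours at 5 doses. Here, GI50 denotes the concentration required for 50% inhibition of growth.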 Activity calls are given as the source filed them. Rule as the data show it: active = GI50 up to about 1.1 µM and inactive = higher.

Experiments:
Assay in all cases: NCI tumour cell line growth inhibition, 48 h
SR = tested on: SR
786-0 = tested on: 786-0
SK-MEL-5 = tested on: SK-MEL-5
PC-3 = tested on: PC-3
UACC-257 = tested on: UACC-257
SW-620 = tested on: SW-620
RXF 393 = tested on: RXF 393
SF-539 = tested on: SF-539
U-251 = tested on: U-251
BT-549 = tested on: BT-549
NCI-H522 = tested on: NCI-H522
IGROV-1 = tested on: IGROV-1
MDA-MB-435 = tested on: MDA-MB-435
HOP-62 = tested on: HOP-62
A549 = tested on: A549
ACHN = tested on: ACHN
CAKI-1 = tested on: CAKI-1
HOP-92 = tested on: HOP-92
SK-MEL-28 = tested on: SK-MEL-28
RPMI-8226 = tested on: RPMI-8226
SF-295 = tested on: SF-295
HCC 2998 = tested on: HCC 2998
UO-31 = tested on: UO-31
MCF7 = tested on: MCF7
K562 = tested on: K562
UACC-62 = tested on: UACC-62
NCI/ADR-RES = tested on: NCI/ADR-RES
HL-60 = tested on: HL-60
NCI-H460 = tested on: NCI-H460
HCT-116 = tested on: HCT-116
Malme-3M = tested on: Malme-3M
COLO 205 = tested on: COLO 205
NCI-H23 = tested on: NCI-H23
LOX IMVI = tested on: LOX IMVI
SN12C = tested on: SN12C
KM12 = tested on: KM12
OVCAR-3 = tested on: OVCAR-3
OVCAR-5 = tested on: OVCAR-5
CCRF-CEM = tested on: CCRF-CEM
SNB-75 = tested on: SNB-75
DU-145 = tested on: DU-145
SNB-19 = tested on: SNB-19
HCT-15 = tested on: HCT-15
MOLT-4 = tested on: MOLT-4
A498 = tested on: A498
NCI-H226 = tested on: NCI-H226
SK-MEL-2 = tested on: SK-MEL-2
MDA-N = tested on: MDA-N
OVCAR-8 = tested on: OVCAR-8
HT-29 = tested on: HT-29
M14 = tested on: M14
OVCAR-4 = tested on: OVCAR-4
MDA-MB-231 = tested on: MDA-MB-231
EKVX = tested on: EKVX
SF-268 = tested on: SF-268
TK-10 = tested on: TK-10
SK-OV-3 = tested on: SK-OV-3
Hs-578T = tested on: Hs-578T

With `c1ccc2c(c1)[n-]n1c3ccc4nonc4c3n[n+]21` the GI50 (SR) was > 100 µM (inactive), the GI50 (786-0) was > 100 µM (inactive) and the GI50 (SK-MEL-5) was > 100 µM (inactive). The GI50 (PC-3) was > 100 µM (inactive), the GI50 (UACC-257) was > 100 µM (inactive) and the GI50 (SW-620) was > 100 µM (inactive). The GI50 (RXF 393) was > 100 µM (inactive), the GI50 (SF-539) was > 100 µM (inactive) and the GI50 (U-251) was > 100 µM (inactive). For the same molecule, the GI50 (BT-549) was > 100 µM (inactive), the GI50 (NCI-H522) was > 100 µM (inactive) and the GI50 (IGROV-1) was > 100 µM (inactive). The GI50 (MDA-MB-435) was > 100 µM (inactive), the GI50 (HOP-62) was 84.5 µM (inactive) and the GI50 (A549) was > 100 µM (inactive). The GI50 (ACHN) was > 100 µM (inactive), the GI50 (CAKI-1) was > 100 µM (inactive) and the GI50 (HOP-92) was > 100 µM (inactive). For the same molecule, the GI50 (SK-MEL-28) was > 100 µM (inactive), the GI50 (RPMI-8226) was > 100 µM (inactive) and the GI50 (SF-295) was > 100 µM (inactive). The GI50 (HCC 2998) was > 100 µM (inactive), the GI50 (UO-31) was > 100 µM (inactive) and the GI50 (MCF7) was 60.5 µM (inactive). The GI50 (K562) was > 100 µM (inactive), the GI50 (UACC-62) was > 100 µM (inactive) and the GI50 (NCI/ADR-RES) was > 100 µM (inactive). The GI50 (HL-60) was > 100 µM (inactive), the GI50 (NCI-H460) was 93.3 µM (inactive) and the GI50 (HCT-116) was > 100 µM (inactive). The GI50 (Malme-3M) was > 100 µM (inactive), the GI50 (COLO 205) was > 100 µM (inactive) and the GI50 (NCI-H23) was > 100 µM (inactive). For the same molecule, the GI50 (LOX IMVI) was > 100 µM (inactive), the GI50 (SN12C) was > 100 µM (inactive) and the GI50 (KM12) was > 100 µM (inactive). For the same molecule, the GI50 (OVCAR-3) was > 100 µM (inactive), the GI50 (OVCAR-5) was > 100 µM (inactive) and the GI50 (CCRF-CEM) was > 100 µM (inactive). The GI50 (SNB-75) was 56.1 µM (inactive), the GI50 (DU-145) was > 100 µM (inactive) and the GI50 (SNB-19) was > 100 µM (inactive). For the same molecule, the GI50 (HCT-15) was greater than 100 µM, the GI50 (MOLT-4) was > 100 µM (inactive) and the GI50 (A498) was > 100 µM (inactive). The GI50 (NCI-H226) was > 100 µM (inactive), the GI50 (SK-MEL-2) was > 100 µM (inactive) and the GI50 (MDA-N) was > 100 µM (inactive). The GI50 (OVCAR-8) was > 100 µM (inactive), the GI50 (HT-29) was > 100 µM (inactive) and the GI50 (M14) was > 100 µM (inactive). For the same molecule, the GI50 (OVCAR-4) was > 100 µM (inactive), the GI50 (MDA-MB-231) was > 100 µM (inactive) and the GI50 (EKVX) was > 100 µM (inactive).
`O=C(NNC(c1ccccc1)C(F)(F)F)c1ccncc1` (configuration not stated) was tested, and the GI50 (SR) was > 100 µM (inactive), the GI50 (786-0) was > 100 µM (inactive) and the GI50 (SK-MEL-5) was > 100 µM (inactive). The GI50 (PC-3) was > 100 µM (inactive), the GI50 (UACC-257) was > 100 µM (inactive) and the GI50 (SF-268) was > 100 µM (inactive). For the same molecule, the GI50 (SW-620) was > 100 µM (inactive), the GI50 (SF-539) was > 100 µM (inactive) and the GI50 (U-251) was > 100 µM (inactive). The GI50 (BT-549) was > 100 µM (inactive), the GI50 (NCI-H522) was > 100 µM (inactive) and the GI50 (IGROV-1) was > 100 µM (inactive). The GI50 (MDA-MB-435) was > 100 µM (inactive), the GI50 (HOP-62) was > 100 µM (inactive) and the GI50 (A549) was > 100 µM (inactive). The GI50 (ACHN) was > 100 µM (inactive), the GI50 (CAKI-1) was > 100 µM (inactive) and the GI50 (HOP-92) was > 100 µM (inactive). The GI50 (SK-MEL-28) was > 100 µM (inactive), the GI50 (RPMI-8226) was > 100 µM (inactive) and the GI50 (SF-295) was > 100 µM (inactive). For the same molecule, the GI50 (HCC 2998) was > 100 µM (inactive), the GI50 (MCF7) was > 100 µM (inactive) and the GI50 (K562) was > 100 µM (inactive). The GI50 (NCI/ADR-RES) was > 100 µM (inactive), the GI50 (TK-10) was > 100 µM (inactive) and the GI50 (HL-60) was > 100 µM (inactive). The GI50 (NCI-H460) was > 100 µM (inactive), the GI50 (HCT-116) was > 100 µM (inactive) and the GI50 (Malme-3M) was > 100 µM (inactive). The GI50 (COLO 205) was > 100 µM (inactive), the GI50 (NCI-H23) was > 100 µM (inactive) and the GI50 (LOX IMVI) was > 100 µM (inactive). The GI50 (SN12C) was > 100 µM (inactive), the GI50 (KM12) was > 100 µM (inactive) and the GI50 (OVCAR-5) was > 100 µM (inactive). For the same molecule, the GI50 (CCRF-CEM) was > 100 µM (inactive), the GI50 (SNB-75) was > 100 µM (inactive) and the GI50 (DU-145) was > 100 µM (inactive). The GI50 (SNB-19) was > 100 µM (inactive), the GI50 (HCT-15) was greater than 100 µM and the GI50 (MOLT-4) was > 100 µM (inactive). For the same molecule, the GI50 (NCI-H226) was > 100 µM (inactive), the GI50 (SK-MEL-2) was > 100 µM (inactive) and the GI50 (OVCAR-8) was > 100 µM (inactive). For the same molecule, the GI50 (HT-29) was > 100 µM (inactive), the GI50 (M14) was > 100 µM (inactive) and the GI50 (OVCAR-4) was > 100 µM (inactive). For the same molecule, the GI50 (MDA-MB-231) was > 100 µM (inactive) and the GI50 (EKVX) was > 100 µM (inactive).
In the case of `Cc1cccc(/N=N/c2ccc(/N=N/c3c(O)ccc4ccccc34)cc2C)c1`, the GI50 (SR) is reported as 21.4 µM (inactive), the GI50 (786-0) is reported as 83.6 µM (inactive) and the GI50 (SK-MEL-5) is reported as > 100 µM (inactive). For the same molecule, the GI50 (PC-3) was 88.3 µM (inactive), the GI50 (SK-OV-3) was 28.4 µM (inactive) and the GI50 (UACC-257) was > 100 µM (inactive). The GI50 (SF-268) was > 100 µM (inactive), the GI50 (SW-620) was > 100 µM (inactive) and the GI50 (RXF 393) was 27 µM (inactive). The GI50 (SF-539) was 36.2 µM (inactive), the GI50 (U-251) was 54.2 µM (inactive) and the GI50 (BT-549) was > 100 µM (inactive). The GI50 (NCI-H522) was 14.2 µM (inactive), the GI50 (IGROV-1) was > 100 µM (inactive) and the GI50 (MDA-MB-435) was > 100 µM (inactive). For the same molecule, the GI50 (HOP-62) was 22.4 µM (inactive), the GI50 (A549) was 80 µM (inactive) and the GI50 (ACHN) was 49.3 µM (inactive). The GI50 (CAKI-1) was 40.2 µM (inactive), the GI50 (HOP-92) was 32.2 µM (inactive) and the GI50 (SK-MEL-28) was > 100 µM (inactive). The GI50 (RPMI-8226) was > 100 µM (inactive), the GI50 (SF-295) was 44.2 µM (inactive) and the GI50 (HCC 2998) was > 100 µM (inactive). For the same molecule, the GI50 (UO-31) was > 100 µM (inactive), the GI50 (MCF7) was > 100 µM (inactive) and the GI50 (K562) was > 100 µM (inactive). The GI50 (UACC-62) was 72.4 µM (inactive), the GI50 (NCI/ADR-RES) was 13.4 µM (inactive) and the GI50 (TK-10) was > 100 µM (inactive). For the same molecule, the GI50 (HL-60) was 33.5 µM (inactive), the GI50 (NCI-H460) was > 100 µM (inactive) and the GI50 (HCT-116) was > 100 µM (inactive). For the same molecule, the GI50 (Malme-3M) was 2 µM (inactive), the GI50 (COLO 205) was > 100 µM (inactive) and the GI50 (NCI-H23) was > 100 µM (inactive). The GI50 (KM12) was > 100 µM (inactive), the GI50 (OVCAR-3) was > 100 µM (inactive) and the GI50 (OVCAR-5) was > 100 µM (inactive). For the same molecule, the GI50 (CCRF-CEM) was > 100 µM (inactive), the GI50 (SNB-75) was 0.144 µM (active) and the GI50 (SNB-19) was 38.2 µM (inactive). For the same molecule, the GI50 (HCT-15) was greater than 100 µM, the GI50 (MOLT-4) was > 100 µM (inactive) and the GI50 (NCI-H226) was > 100 µM (inactive). For the same molecule, the GI50 (SK-MEL-2) was > 100 µM (inactive), the GI50 (OVCAR-8) was 7.05 µM (inactive) and the GI50 (HT-29) was > 100 µM (inactive). The GI50 (M14) was 41.7 µM (inactive), the GI50 (OVCAR-4) was > 100 µM (inactive) and the GI50 (Hs-578T) was 33.9 µM (inactive). For the same molecule, the GI50 (MDA-MB-231) was > 100 µM (inactive) and the GI50 (EKVX) was 84.7 µM (inactive).
